We go through 1 compound from patent US20260217701A1, “SELECTIVE BET INHIBITORS AND USES THEREOF” (Tay Therapeutics Limited, priority 2022, published 2026).

The assay deals with idiopathic pulmonary fibrosis (bleomycin). As to the kind of experiment: Bleomycin IPF model: functional lung volume by micro-CT. The assay is classed as in vivo, C57BI/6J mice. Further details: Functional Lung Volume, Mean: unit not given here. The following applies: Day 21. As to the method: Animals were acclimated for two weeks prior to study initiation, and were randomized into the experimental groups outlined in Table 32. Intratracheal (IT) administration of Bleo or PBS control was conducted at the start of the study (Day 0). […] Following administration of Bleo, animals (n=10/group) were included in the study if they met the following guidelines on Day 7: […] Micro-CT imaging was also performed on Day 7 to determine relative fibrosis and on Day 21. […] Images were acquired with a respiratory gated technique with the following parameters: X-ray tube voltage: 90 KV; X-ray tube current: 88 μA; total scan time: 4 minutes. The system was calibrated monthly with standard phantoms for noise, uniformity, low contrast, and resolution to ensure consistency.

On to `Cn1cc(-c2ccccc2)c(-c2cn(C)c(=O)c3[nH]c(-c4cnn(C(F)(F)F)c4)cc23)cc1=O` [Compound A, 6-methyl-4-(1-methyl-2-oxo-5-phenyl-1,2-dihydropyridin-4-yl)-2-(1-(trifluoromethyl)-1H-pyrazol-4-yl)-1,6-dihydro-7H-pyrrolo[2,3-c]pyridin-7-one], for which the “Functional Lung Volume, Mean” value reads like this: (Bleo + Compound A (1 mg/kg) OG QOD from D7) 283.165; (Bleo + Compound A (3 mg/kg) OG QOD from D7) 343.5975; (Bleo + Compound A (10 mg/kg) OG QOD from D7) 452.7838. Where the note is “Group 5, 10 mg/kg”, the “Mean improvement in functional lung volume compared to Group 2” value is reported as about 52.7%.
